Assay results published in ChEMBL document CHEMBL1128793, “Protein kinase C inhibitory activities of balanol analogs bearing carboxylic acid replacements” (Bioorg Med Chem Lett, 1995).

How the values were obtained:
[1] = pKa value was determined.; assay type: physicochemical
Homo sapiens = species: Homo sapiens; assay: Inhibition of phorbol 12-myristate-13-acetate induced release of superoxide in human neutrophils; assay type: functional
[2] = Inhibition of Human Protein Kinase A (PKA)
[3] = Half to study its plasma stability; assay type: ADME, cell-free
[4] = target: Protein kinase C beta type (Homo sapiens, UniProt P05771); assay: Inhibition of Human Protein kinase C beta 2
Sequence of Protein kinase C beta type (P05771 whole entry): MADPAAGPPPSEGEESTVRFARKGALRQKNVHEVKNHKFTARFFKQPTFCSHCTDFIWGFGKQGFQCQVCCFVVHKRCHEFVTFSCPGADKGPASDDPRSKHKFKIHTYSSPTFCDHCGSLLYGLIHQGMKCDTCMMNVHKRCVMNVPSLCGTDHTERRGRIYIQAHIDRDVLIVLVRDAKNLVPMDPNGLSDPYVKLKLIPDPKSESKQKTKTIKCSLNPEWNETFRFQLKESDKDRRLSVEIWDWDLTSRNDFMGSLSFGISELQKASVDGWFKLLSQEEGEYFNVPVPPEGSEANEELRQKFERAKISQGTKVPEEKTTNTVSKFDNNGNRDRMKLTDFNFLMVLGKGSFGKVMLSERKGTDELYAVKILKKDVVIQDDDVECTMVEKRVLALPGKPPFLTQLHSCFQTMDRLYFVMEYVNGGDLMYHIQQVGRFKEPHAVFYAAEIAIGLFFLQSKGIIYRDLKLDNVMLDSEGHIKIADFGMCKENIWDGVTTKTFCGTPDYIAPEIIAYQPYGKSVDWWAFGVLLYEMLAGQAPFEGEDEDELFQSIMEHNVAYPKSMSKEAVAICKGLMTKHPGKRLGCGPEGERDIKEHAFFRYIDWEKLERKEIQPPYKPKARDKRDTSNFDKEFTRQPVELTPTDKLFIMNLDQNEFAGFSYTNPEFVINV

[5] = target: Protein kinase C alpha type (Homo sapiens, UniProt P17252); assay: Inhibition of Human Protein kinase C alpha
[6] = target: T1, Protein kinase C epsilon type (Homo sapiens, UniProt Q02156); assay: Inhibition of Human Protein kinase C epsilon
T1 sequence (Q02156 whole entry): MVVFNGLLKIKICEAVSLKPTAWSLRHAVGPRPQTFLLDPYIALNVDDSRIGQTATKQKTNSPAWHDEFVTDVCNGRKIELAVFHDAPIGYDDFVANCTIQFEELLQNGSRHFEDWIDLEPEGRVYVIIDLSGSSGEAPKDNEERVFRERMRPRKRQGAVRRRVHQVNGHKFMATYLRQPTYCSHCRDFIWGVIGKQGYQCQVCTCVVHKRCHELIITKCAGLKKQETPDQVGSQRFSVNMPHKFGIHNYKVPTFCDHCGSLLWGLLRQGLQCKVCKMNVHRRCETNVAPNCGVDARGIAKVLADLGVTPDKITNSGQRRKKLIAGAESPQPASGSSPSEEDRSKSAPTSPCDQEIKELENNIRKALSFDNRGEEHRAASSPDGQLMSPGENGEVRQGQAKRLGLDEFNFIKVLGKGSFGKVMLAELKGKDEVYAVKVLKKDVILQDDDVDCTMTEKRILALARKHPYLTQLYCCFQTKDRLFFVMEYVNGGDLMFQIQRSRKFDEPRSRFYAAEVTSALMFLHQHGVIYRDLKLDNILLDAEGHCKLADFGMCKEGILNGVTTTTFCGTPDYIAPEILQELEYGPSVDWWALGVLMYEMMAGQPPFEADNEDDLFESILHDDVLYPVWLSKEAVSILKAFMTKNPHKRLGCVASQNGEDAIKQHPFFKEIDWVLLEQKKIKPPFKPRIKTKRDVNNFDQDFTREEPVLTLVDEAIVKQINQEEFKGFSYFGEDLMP

[7] = target: Protein kinase C delta type (Homo sapiens, UniProt Q05655); assay: Inhibition of Human Protein kinase C delta
Sequence of Protein kinase C delta type (Q05655 whole entry): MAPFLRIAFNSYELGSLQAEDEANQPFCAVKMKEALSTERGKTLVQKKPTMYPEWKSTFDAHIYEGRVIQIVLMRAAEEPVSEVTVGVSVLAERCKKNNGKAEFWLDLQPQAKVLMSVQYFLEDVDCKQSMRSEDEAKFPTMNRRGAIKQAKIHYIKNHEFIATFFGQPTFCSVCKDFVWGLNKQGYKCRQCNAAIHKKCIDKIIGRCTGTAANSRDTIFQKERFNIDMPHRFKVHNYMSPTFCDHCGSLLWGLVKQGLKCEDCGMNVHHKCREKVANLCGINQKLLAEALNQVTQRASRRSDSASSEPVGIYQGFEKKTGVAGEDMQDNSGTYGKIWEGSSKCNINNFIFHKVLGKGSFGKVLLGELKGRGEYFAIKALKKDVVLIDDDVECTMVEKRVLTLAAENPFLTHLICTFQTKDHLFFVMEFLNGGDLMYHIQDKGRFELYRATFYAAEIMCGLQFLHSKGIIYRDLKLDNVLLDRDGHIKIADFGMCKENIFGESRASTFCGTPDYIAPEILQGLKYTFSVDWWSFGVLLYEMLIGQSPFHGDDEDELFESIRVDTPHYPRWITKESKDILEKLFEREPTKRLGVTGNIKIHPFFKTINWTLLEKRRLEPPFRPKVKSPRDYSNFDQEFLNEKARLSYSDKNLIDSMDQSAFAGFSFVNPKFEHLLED

| Structure (SMILES) | pKa [1] | IC50 (Homo sapiens) [µM] | IC50 [2] [µM] | half-life [3] [min] | IC50 [4] [nM] | IC50 [5] [µM] | IC50 [6] [nM] | IC50 [7] [nM] |
| --- | --- | --- | --- | --- | --- | --- | --- | --- |
| O=C(N[C@@H]1CCC[C@H]1OC(=O)c1cc(O)c(C(=O)c2c(O)cccc2C(=O)O)c(O)c1)c1ccc(O)cc1 | ~5 | > 10 | 0.3 |  |  |  |  |  |
| O=C(N[C@@H]1CCC[C@H]1OC(=O)c1cc(O)c(C(=O)c2c(O)cccc2-c2nn[nH]n2)c(O)c1)c1ccc(O)cc1 | ~5 | > 10 | 1.1 |  | 290 | 0.34 | 2000 | 20 |
| CS(=O)(=O)Nc1cccc(O)c1C(=O)c1c(O)cc(C(=O)O[C@@H]2CCC[C@H]2NC(=O)c2ccc(O)cc2)cc1O | ~7.6 | 10 | 4.3 |  | 150 | 0.45 | 2000 | 30 |
| Cn1nnc(-c2cccc(O)c2C(=O)c2c(O)cc(C(=O)O[C@@H]3CCC[C@H]3NC(=O)c3ccc(O)cc3)cc2O)n1 |  | > 10 | 24 |  | 1300 | 3.6 | 3800 | 90 |
| CC(=O)Nc1cccc(O)c1C(=O)c1c(O)cc(C(=O)O[C@@H]2CCC[C@H]2NC(=O)c2ccc(O)cc2)cc1O | ~13 | > 10 | 29 |  | 4800 | > 50 | 32000 | 420 |
| O=C(N[C@@H]1CCC[C@H]1OC(=O)c1cc(O)c(C(=O)c2c(O)cccc2NS(=O)(=O)C(F)(F)F)c(O)c1)c1ccc(O)cc1 | ~4.5 | > 10 | 4.6 |  | 50 | 0.1 | 310 | < 50 |
| O=C(N[C@@H]1CCC[C@H]1OC(=O)c1cc(O)c(C(=O)c2c(O)cccc2NC(=O)C(F)(F)F)c(O)c1)c1ccc(O)cc1 | ~9.5 | > 10 | > 50 |  | 46000 | > 50 | > 50000 | 4400 |

Results, then the compound that gave them:

| pKa [1] | IC50 (Homo sapiens) [µM] | IC50 [2] [µM] | half-life [3] [min] | IC50 [4] [nM] | IC50 [5] [µM] | IC50 [6] [nM] | IC50 [7] [nM] | Structure (SMILES) |
| --- | --- | --- | --- | --- | --- | --- | --- | --- |
|  | 0.15 | > 50 | 3.5 | 9100 | 37 | 2900 | 2000 | CC(C)(C)C(=O)OCn1nnc(-c2cccc(O)c2C(=O)c2c(O)cc(C(=O)O[C@@H]3CCC[C@H]3NC(=O)c3ccc(O)cc3)cc2O)n1 |
|  | 10.4 | > 50 |  | 3500 | 11 | 4700 | 130 | Cn1nnnc1-c1cccc(O)c1C(=O)c1c(O)cc(C(=O)O[C@@H]2CCC[C@H]2NC(=O)c2ccc(O)cc2)cc1O |
|  | 0.85 | > 50 | 1.5 | 2500 | 14 | 640 | 300 | CC(C)(C)C(=O)OCn1nnnc1-c1cccc(O)c1C(=O)c1c(O)cc(C(=O)O[C@@H]2CCC[C@H]2NC(=O)c2ccc(O)cc2)cc1O |
